Laboratory results: US20170367338A1, “COMPOSITIONS AND METHODS FOR IMPROVING AGRONOMIC CHARACTERISTICS OF PLANTS” (MONSANTO TECHNOLOGY LLC, priority 2014, published 2017)
Converted amounts (≈) assume the structure as drawn. Where two headings read alike, the source gives them in different places.

Assays:
Assay type in all cases: in vivo
Meloidogyne incognita [1] = experiment: M. incognita miniaturized greenhouse assay on cucumber seedlings; settings: text reference to table 1D, 8 ppm and 1 ppm
Method: The test compound is dissolved in an acetone solution and added to water. A sprouted cucumber seedling is placed into a vial with dry sand and the water-chemical solution is added immediately. Twenty four hours later Meloidogyne incognita eggs are added to the vials and 10 to 12 days later the roots are evaluated for nematode galling.
Cucumber seeds are sprouted for 3 days in moist paper towels. Acceptable sprouts should be 3 to 4 cm long with several lateral roots just emerging. Stock solutions of chemistry are prepared in a mixture of acetone and Triton X100 (412 mg in 500 mL) to a final concentration of 5 mg/mL. The chemical stock solution is then added to 10 mL deionized water plus 0.015% Triton X100 and mixed thoroughly. This is enough to test each condition in triplicate. Ten mL dry sand is added to each vial. At this time the solubility of the chemistry is visually determined and recorded as either ppt (large precipitates) or cloudy (fine precipitates). Seedlings are planted by tilting the vial and laying the seedling in the correct orientation so that the cotyledons are just above the sand and then tilting back to cover the radicles with sand. 3.3 ml water/chemical mix is added to each vial and the vials placed in racks under fluorescent light banks. The vials are inoculated two days after planting by adding 500 vermiform M. incognita eggs to each vial in 50 uL of deionized or spring water. The vials are then kept under the fluorescent lamps at ambient room temperature and watered as needed with 1mL deionized water, usually twice during duration of test. Harvest of the cucumber plants is done 10 to 12 days after inoculation by washing sand off the roots. A root gall rating and visual phytotoxicity rating is assigned using the following scales: Gall rating scale (Gall: % root mass galled): 0=0-5%; 1=6-20%; 2=21-50%; and 3=51-100%. The average of the triplicate gall rating is then calculated: green=0.00-0.33 (no galls); yellow=0.67-1.33 (mild galling); orange=1.67-2.33 (moderate galling); red=2.67-3.00 (severe galling). Visual phytotoxicity scale is also assigned (Vis. tox; visual reduction in root mass compared to the control): rs1=mild stunting; rs2=moderate stunting; rs3=severe stunting.

[2] = tested on: Heterodera glycines (SCN); experiment: Seed treatment test of soybean cyst nematode on soybean; settings: Heterodera glycines, 672 h, read-out: percent cyst reduction relative to control blank treatment
Method: For a given concentration the chemical is dissolved in 500 ul of acetone and one gram of cucumber seed (RKN test) or soybean seed (SCN test) is added (e.g., 20 mg active ingredient in 500 ul acetone plus 1 gram of seed). The seed solutions are agitated until all seeds were thoroughly covered with the chemical solution. The acetone is then allowed to evaporate by air drying the seeds. The seeds are planted in 2-inch pots containing sandy soil and then the pots are inoculated with 1000 Meloidogyne incognita (RKN) or 1000 Heterodera glycines (SCN) eggs per pot three days after planting. Plants are rated for galling 14 days after egg inoculation for RKN or 28 days after egg inoculation for SCN.

root knot nematode = experiment: Pre-plant incorporated (PPI) greenhouse test of root knot nematode on cucumber plants; settings: 168 h, seven day pre-plant incorporated
From the text: The PPI test examines the effect of pre-incorporation of compounds in soil and longer aging to simulate in furrow methods of nematicide application in the field. The PPI test exposes compounds to a higher volume of soil and drying which can result in more severe soil binding. Compounds are also aged for longer periods which can lead to more extensive biotic and abiotic degradation further limiting activity.
The chemically treated soil (sandy soil mix) for all treatment days (e.g., 7 days, 14 days, 21 days) treatments is potted into their appropriate pots. On the same day the 7 day treatment pots are seeded. One week later eggs are applied and 14 days after egg application the test is harvested. The 14 day treatments are planted 7 days after the first planting. The 14 day planting and 7 day inoculation happen on the same day. One week later the 14 day treatments are inoculated with eggs. These are harvested 14 days after the inoculation. The 21 day treatments are planted 14 days after the first planting. The 14 day inoculation and 21 day planting are done on the same day. One week later the 21 day plants are inoculated with eggs. The 7 day treatment is harvested the same day as the 21 day inoculation. Fourteen days after inoculation the 21 day plants are harvested.
For each compound a stock is prepared using 4 mg material in 4 ml of acetone. The soil is mixed by placing 80 ml of field soil and 320 ml of sand in a plastic bag and mixing well. The formulation for treatment is done by adding 2.13 ml (8 kg/ha rate), 1.06 ml (4 kg/ha rate) or 0.53 ml (2 kg/ha rate) to a vial and raising it with 10 ml in 0.05% X100. Soil is then treated by adding the entire 10 ml to the 400 ml of mix in the bag. The treated soil is immediately mixed well in the sealed bag to distribute the compound evenly. Approximately 95 ml is used to fill each 2-inch square pot up to the top with some soil compression and flattening. For each compound and for the control treatments 4 pots are filled. All pots are watered until moist but with no run-out through the bottom.
The PPI test simulates 8, 4 and 2 kg/ha rates incorporated 15 cm deep in the field and is equivalent to the 2, 1 and 0.5 kg/ha drench application rates in the standard 2-inch pot cucumber greenhouse assay.

C. elegans = experiment: Three day C. elegans well assay; settings: for EC50: Caenorhabditis elegans
Method: Various compounds were tested for nematicidal activity against C. elegans using contact assays in wells. The assays were performed as described below. The test compounds were solubilized in DMSO at 10 mg/ml to create 100× stock solutions. A dilution series was created by diluting the stock solution with DMSO. For each well assay 4 ul of the appropriate dilution is added to a well of a test plate. A 400 ul aliquot of bacterial stock (in M9 buffer with ampicillin and nystatin) are added to each well of the test plate. Worms are added and the test plate placed on a rotary shaker and held at 20° C. Worms are examined and scored at 4 hrs, 24 hrs, 48 hrs and 72 hours. L1 worms and L4 worms were used in the assay. L1 worms are prepared by plating eggs on a plate without a bacterial feeding layer. The eggs hatch and arrest at the L1 stage. This L1 stage population is then used to create a stock for the experiments. To create an L4 stage stock a small number of worms are taken from an overgrown and starved plate of worms and seeded on a plate with a bacterial feeder layer. A 25 ul aliquot of worms is added to each well in the assay.

Meloidogyne incognita [3] = experiment: Summer field evaluation of pre-plant incorporated compounds on squash; settings: 2 kg/ha PPI, squash
Method: Test plots of 33 cm diameter holes were bored 41 cm deep into clay soil and filled with a mixture of 80% sand and 20% silt loam soil. Technical compound for each treatment was dissolved in 50 ml acetone containing 250 ul of Triton X-100 surfactant. This solution was added to 450 ml water and poured onto 95 liters of sand/soil mixture in a rotating drum mixer. While continuing to rotate the mixing drum 66 grams of chopped, galled, tomato roots was added and thoroughly distributed. The treated soil was sufficient to fill the top 15 cm of each of the 6 replicate plots, thus simulating a PPI treatment. The plots were then watered lightly and a mixture of M. incognita eggs and larvae were injected 5 cm deep at 5 points within the plot (100k eggs/larvae in 10m1 per plot). Three-week old squash (cv. Liberator III) with 1 fully expanded true leaf was planted 4 days after soil treatment, one per plot.

[4] = 24 h, L1 larvae, one day of exposure, read-out: EC50 L1 1D
[5] = 48 h, L1 larvae, two days of exposure, read-out: EC50 L1 2D
[6] = 72 h, L1 larvae, three days of exposure, read-out: EC50 L1 3D
[7] = 72 h, L4 larvae, three days, effects on the second generation larvae, read-out: EC50 L4 3D (F1)
[8] = 48 h, L4 larvae, two days of exposure, read-out: EC50 L4 2D
[9] = L4 larvae, two days of exposure
[10] = 24 h, L4 larvae, one day of exposure, read-out: EC50 L4 1D

SMILES	EC50 (C. elegans; [4]) [µg/mL]	EC50 (C. elegans; [5]) [µg/mL]	EC50 (C. elegans; [6]) [µg/mL]	EC50 (C. elegans; [7]) [µg/mL]	EC50 L4 1D (C. elegans; L4 larvae, one day of exposure)	EC50 (C. elegans; [8]) [µg/mL]	EC50 (C. elegans; [10]) [µg/mL]	also measured
c1ccc(-c2cc(-c3ccco3)n[nH]2)cc1 [3-(furan-2-yl)-5-phenyl-1H-pyrazole]								nematicidal activity (Meloidogyne incognita [1]): at 8 ppm but not 1 ppm
CS/C(C)=N\OC(=O)N(C)SN(C)C(=O)O/N=C(\C)SC [Thiodicarb, reference compound]								pest or weed control at 0.375 mg/g [2]: 6%; pest or weed control at 1.5 mg/g [2]: -23%
FC(F)(F)c1ccc(-c2noc(-c3cccs3)n2)cc1 [compound 5213]								pest or weed control at 4000 g/ha (root knot nematode; 4 kg/ha, read-out: percent control (galling reduction), 4 kg/ha rate): 85%; pest or weed control at 8000 g/ha (root knot nematode; 8 ka/ha, read-out: percent control (galling reduction), 8 ka/ha rate): 98%
Clc1cc(-c2noc(-c3cccs3)n2)ccc1Br [compound 5820]	0.4 (≈ 1.17 µM)	0.4 (≈ 1.17 µM)	0.4 (≈ 1.17 µM)	6.3 (≈ 18.4 µM)	no			
Clc1cc(-c2noc(-c3ccco3)n2)ccc1Br [compound 5821]	0.4 (≈ 1.23 µM)	0.4 (≈ 1.23 µM)	0.4 (≈ 1.23 µM)	0.4 (≈ 1.23 µM)	no			
Cc1cc(Cl)ccc1-c1noc(-c2cccs2)n1 [compound 5822]	1.6 (≈ 5.78 µM)	0.4 (≈ 1.45 µM)	0.4 (≈ 1.45 µM)	1.6 (≈ 5.78 µM)	no	1.6 (≈ 5.78 µM)		
Cc1cc(Br)ccc1-c1noc(-c2cccs2)n1 [compound 5824]	1.6 (≈ 4.98 µM)	0.4 (≈ 1.25 µM)	0.4 (≈ 1.25 µM)	1.6 (≈ 4.98 µM)	no			EC50 L4 2D (C. elegans; [9]): no
Clc1ccccc1-c1cnc(-c2cccs2)o1 [compound 5826]	6.3 (≈ 24.1 µM)	1.6 (≈ 6.11 µM)	1.6 (≈ 6.11 µM)	6.3 (≈ 24.1 µM)		6.3 (≈ 24.1 µM)	6.3 (≈ 24.1 µM)	
Brc1ccccc1-c1cnc(-c2cccs2)o1 [compound 5827]	6.3 (≈ 20.6 µM)	1.6 (≈ 5.23 µM)	1.6 (≈ 5.23 µM)	6.3 (≈ 20.6 µM)		6.3 (≈ 20.6 µM)	25 (≈ 81.7 µM)	
Clc1ccccc1-c1cnc(-c2ccco2)o1 [compound 5828]	1.6 (≈ 6.51 µM)	1.6 (≈ 6.51 µM)	1.6 (≈ 6.51 µM)		no			EC50 L4 3D (C. elegans; L4 larvae, three days of exposure): no; EC50 L4 2D (C. elegans; [9]): no
Cc1cc(F)ccc1-c1noc(-c2cccs2)n1 [compound 5845]		1.6 (≈ 6.15 µM)	0.4 (≈ 1.54 µM)	25 (≈ 96 µM)	no	25 (≈ 96 µM)		EC50 L1 1D (C. elegans; L1 larvae, one day of exposure): no
Cc1cc(F)ccc1-c1noc(-c2ccco2)n1 [compound 5846]	1.6 (≈ 6.55 µM)	0.4 (≈ 1.64 µM)	0.4 (≈ 1.64 µM)	1.6 (≈ 6.55 µM)		1.6 (≈ 6.55 µM)	1.6 (≈ 6.55 µM)	
Fc1ccc(-c2noc(-c3cccs3)n2)c(F)c1 [compound 5847]		0.4 (≈ 1.51 µM)	0.4 (≈ 1.51 µM)	1.6 (≈ 6.05 µM)	no	1.6 (≈ 6.05 µM)		EC50 L1 1D (C. elegans; L1 larvae, one day of exposure): no; pest or weed control at 0.375 mg/g ([2]; 0.375 mg ai/gram seed, test b): 66%; pest or weed control at 1.5 mg/g ([2]; 1.5 mg ai/gram seed, test b): 80%
Fc1cc(Br)ccc1-c1noc(-c2cccs2)n1 [compound 5848]	1.6 (≈ 4.92 µM)	0.4 (≈ 1.23 µM)	0.4 (≈ 1.23 µM)	1.6 (≈ 4.92 µM)		1.6 (≈ 4.92 µM)	1.6 (≈ 4.92 µM)	
Fc1ccc(-c2noc(-c3ccco3)n2)c(F)c1 [compound 5849]	6.3 (≈ 25.4 µM)	0.4 (≈ 1.61 µM)	1.6 (≈ 6.45 µM)	6.3 (≈ 25.4 µM)	no			
Fc1cc(Br)ccc1-c1noc(-c2ccco2)n1 [compound 5850]	1.6 (≈ 5.18 µM)	0.4 (≈ 1.29 µM)	0.4 (≈ 1.29 µM)	1.6 (≈ 5.18 µM)		1.6 (≈ 5.18 µM)	1.6 (≈ 5.18 µM)	
Fc1cc(Cl)ccc1-c1noc(-c2cccs2)n1 [compound 5860]	1.6 (≈ 5.7 µM)	0.4 (≈ 1.42 µM)	0.4 (≈ 1.42 µM)	1.6 (≈ 5.7 µM)		1.6 (≈ 5.7 µM)	1.6 (≈ 5.7 µM)	
Fc1cc(Cl)ccc1-c1noc(-c2ccco2)n1 [compound 5861]	0.4 (≈ 1.51 µM)	0.4 (≈ 1.51 µM)	0.4 (≈ 1.51 µM)	1.6 (≈ 6.05 µM)		1.6 (≈ 6.05 µM)	1.6 (≈ 6.05 µM)	
Fc1cc(F)c(-c2noc(-c3cccs3)n2)c(F)c1 [compound 5878]								pest or weed control at 0.375 mg/g ([2]; 0.375 mg ai/gram seed, test b): 43%; pest or weed control at 1.5 mg/g ([2]; 1.5 mg ai/gram seed, test b): 77%
Clc1ccc(-c2nsc(-c3cccs3)n2)cc1 [compound 5905]	0.4 (≈ 1.43 µM)	0.4 (≈ 1.43 µM)	0.4 (≈ 1.43 µM)					
Clc1ccc(-c2nsc(-c3ccco3)n2)cc1 [compound 5906]	0.4 (≈ 1.52 µM)	0.4 (≈ 1.52 µM)	0.4 (≈ 1.52 µM)					
Fc1cc(Cl)ccc1-c1nsc(-c2ccco2)n1 [compound 5953]								pest or weed control at 0.375 mg/g ([2]; 0.375 mg ai/gram seed, test b): 44%; pest or weed control at 1.5 mg/g ([2]; 1.5 mg ai/gram seed, test b): 77%
CCOP(=O)(SC(C)CC)N1CCSC1=O (stereo not drawn) [fosthiazate]								0-3 vigor 16DAP (Meloidogyne incognita [3]): 3.0; 0-3 vigor 21DAP (Meloidogyne incognita [3]): 3.0; feeder root (3 = ave) 31DAP (Meloidogyne incognita [3]): 2.3; gall % 31DAP (Meloidogyne incognita [3]): 5%; root wgt (g) 31DAP (Meloidogyne incognita [3]): 26.4 g; top wgt (lbs) 31DAP (Meloidogyne incognita [3]): 2.01 lbs; total fruit (lbs) (Meloidogyne incognita [3]): 1.25 lbs
